Measured values as given in patent US20220000110A1, “COMPOSITIONS COMPRISING PYRIDINE CARBOXYLATE HERBICIDES AND CELLULOSE BIOSYNTHESIS INHIBITOR HERBICIDES” (priority 2018, published 2022).

Legend:
Assay in all cases: Greenhouse postemergence herbicidal effect, visual injury after 20-22 d
Format in all cases: in vivo
[1] = test system: Salsola kali (Russian thistle); settings: SASKR
From the text: (§1) Greenhouse Trial Methodology—Evaluation of Postemergence Herbicidal Effect
(§2) Seeds of the desired test plant species were planted in a 90:10% v/v (volume/volume) mixture of PRO-MIX® BX (Premier Tech Horticulture, Quakertown, Pa., USA) and PROFILE® GREENS GRADE™ (Profile Products LLC, Buffalo Grove, Ill., USA) planting mixture, which typically has a pH of 5.2 to 6.2 and an organic matter content of at least 50 percent, in plastic pots with a surface area of 103.2 square centimeters (cm^2). In some aspects, to help ensure good germination and healthy plants, a fungicide treatment and/or other chemical or physical treatment was applied. The plants were grown for 7-36 days (d) in a greenhouse with an approximate 14-hour (h) photoperiod which was maintained at about 23° C. during the day and 22° C. during the night. Nutrients and water were added on a regular basis and supplemental lighting was provided with overhead metal halide 1000-Watt lamps as necessary. The plants were employed for testing when they reached the second or third true leaf stage.
(§3) Emulsifiable concentrates of each of each pyridine carboxylate herbicide (Compound A or Compound B) were prepared at 100 grams acid equivalent per liter (g ae/L). The emulsifiable concentrates also included a safener, at 120 grams active ingredient per liter (g ai/L). An aliquot of each emulsifiable concentrate was placed in a 25 mL glass vial and diluted with an aqueous mixture of 1.25% (v/v) ACTIROB® B esterified rapeseed oil (Bayer Crop Science, Research Triangle Park, N.C., USA) or MSO® Concentrate with LECI-TECH® methylated soybean oil (Loveland Products, Loveland, Colo., USA) to obtain concentrated stock solutions at the highest application rate for each herbicide, based upon a 12 milliliter (mL) application volume at a rate of 187 liters per hectare (L/ha). The concentrated stock solutions were further diluted with an aqueous mixture of 1.25% v/v ACTIROB® B or MSO® Concentrate with LECI-TECH® to obtain stock solutions at reduced application rates for each herbicide. Spray solutions of the herbicide combinations (Compound A or Compound B plus the CBI herbicide) were prepared by adding weighed amounts or aliquots of the CBI herbicide to the stock solutions of Compound A or Compound B to form 12-mL spray solutions in two-way combinations.
(§4) The spray solutions were applied to the plant material with an overhead Mandel track sprayer equipped with 8002E nozzles calibrated to deliver 187 L/ha over an application area of 0.503 square meters (m^2) at a spray height of 18 inches (43 centimeters (cm)) above the average plant canopy. Control plants were sprayed in the same manner with the solvent blank. All pyridine carboxylate herbicide (component a) application rates are given as “g ae/ha” and all CBI herbicide (component b) application rates are given as “g ai/ha.”
(§5) The treated plants and control plants were placed in a greenhouse as described above and watered by sub-irrigation to prevent wash-off of the test compounds. After 20-22 d, the condition of the test plants as compared with that of the control plants was determined visually and scored on a scale of 0 to 100 percent where 0 corresponds to no injury and 100 corresponds to complete kill.

[2] = test system: Polygonum convolvulus (wild buckwheat); settings: POLCO
From the text: as §1, §2, §3, §4, §5

[3] = test system: Matricaria chamomilla (wild chamomile); settings: MATCH
From the text: as §1, §2, §3, §4, §5

[4] = test system: Lolium multiflorum (Italian rye grass); settings: Table 2; LOLMU; Indaziflam 35 g/ha
From the text: as §1, §2, §3, §4, §5

[5] = test system: Cirsium arvense (Canadian thistle); settings: CIRAR
From the text: as §1, §2, §3, §4, §5

[6] = test system: Echinochloa crus-galli (barnyard grass); settings: ECHCG
From the text: as §1, §2, §3, §4, §5

[7] = test system: Ipomoea hederacea (ivyleaf morningglory); settings: IPOHE
From the text: as §1, §2, §3, §4, §5

[8] = test system: Digitaria sanguinalis (large crabgrass); settings: DIGSA
From the text: as §1, §2, §3, §4, §5

[9] = test system: Amaranthus retroflexus (pigweed); settings: AMARE
From the text: as §1, §2, §3, §4, §5

[10] = test system: Brassica napus (winter rape); settings: BRSNW
From the text: as §1, §2, §3, §4, §5

[11] = test system: Brassica napus (spring rape); settings: BRSNN
From the text: as §1, §2, §3, §4, §5

[12] = test system: Abutilon theophrasti (velvetleaf); settings: ABUTH
From the text: as §1, §2, §3, §4, §5

[13] = test system: Chenopodium album L. (common lambsquarters); settings: CHEAL
From the text: as §1, §2, §3, §4, §5

[14] = test system: Kochia scoparia (kochia); settings: KCHSC
From the text: as §1, §2, §3, §4, §5

[15] = test system: Setaria faberi (giant foxtail); settings: SETFA
From the text: as §1, §2, §3, §4, §5

[16] = test system: Viola tricolor (wild pansy); settings: VIOTR
From the text: as §1, §2, §3, §4, §5

[17] = test system: Rumex obtusifolius (broad-leaf dock); settings: Table 1; RUMOB; Isoxaben 50 g/ha
From the text: as §1, §2, §3, §4, §5

[18] = test system: Glycine max (soybean); settings: Table 1; GLXMA; Isoxaben 50 g/ha
From the text: as §1, §2, §3, §4, §5

[19] = test system: Euphorbia heterophylla (poinsettia); settings: Table 1; EPHHL; Isoxaben 50 g/ha
From the text: as §1, §2, §3, §4, §5

[20] = test system: Stellaria media (chickweed); settings: Table 1; STEME; Isoxaben 50 g/ha
From the text: as §1, §2, §3, §4, §5

[21] = test system: Cyperus esculentus (nutsedge); settings: Table 1; CYPES; Isoxaben 50 g/ha
From the text: as §1, §2, §3, §4, §5

[22] = test system: Oryza sativa (common rice); settings: Table 1; ORYSA; Isoxaben 50 g/ha
From the text: as §1, §2, §3, §4, §5

[23] = test system: Helianthus annuus (common sunflower); settings: Table 1; HELAN; Isoxaben 50 g/ha
From the text: as §1, §2, §3, §4, §5

[24] = test system: Sorghum vulgare (grain sorghum); settings: Table 1; SORVU; Isoxaben 50 g/ha
From the text: as §1, §2, §3, §4, §5

Cc1ccc2c(c1)[C@H](Nc1nc(N)nc(C(C)F)n1)[C@@H](C)C2 (some centres unmarked) [Indaziflam, indaziflam, reference compound]
Obs % visual injury ([1]; Table 3, Indaziflam 35 g/ha): 55%
Obs % visual injury ([1]; Table 3, Indaziflam 70 g/ha): 60%
Obs % visual injury ([2]; Table 2, Indaziflam 35 g/ha): 10%
Obs % visual injury ([2]; Table 3, Indaziflam 35 g/ha): 10%
Obs % visual injury ([2]; Table 3, Indaziflam 70 g/ha): 13%
Obs % visual injury ([3]; Table 3, Indaziflam 35 g/ha): 13%
Obs % visual injury ([3]; Table 3, Indaziflam 70 g/ha): 38%
Obs % visual injury [4]: 0%
Obs % visual injury ([5]; Table 2, Indaziflam 35 g/ha): 5%
Obs % visual injury ([6]; Table 2, Indaziflam 35 g/ha): 0%
Obs % visual injury ([7]; Table 2, Indaziflam 35 g/ha): 10%
Obs % visual injury ([8]; Table 2, Indaziflam 35 g/ha): 0%
Obs % visual injury ([9]; Table 3, Indaziflam 35 g/ha): 23%
Obs % visual injury ([9]; Table 3, Indaziflam 70 g/ha): 33%
Obs % visual injury ([10]; Table 3, Indaziflam 35 g/ha): 45%
Obs % visual injury ([10]; Table 3, Indaziflam 70 g/ha): 45%
Obs % visual injury ([11]; Table 2, Indaziflam 35 g/ha): 30%
Obs % visual injury ([12]; Table 2, Indaziflam 35 g/ha): 60%
Obs % visual injury ([13]; Table 3, Indaziflam 35 g/ha): 10%
Obs % visual injury ([13]; Table 3, Indaziflam 70 g/ha): 10%
Obs % visual injury ([14]; Table 2, Indaziflam 35 g/ha): 40%
Obs % visual injury ([14]; Table 3, Indaziflam 35 g/ha): 28%
Obs % visual injury ([14]; Table 3, Indaziflam 70 g/ha): 30%
Obs % visual injury ([15]; Table 2, Indaziflam 35 g/ha): 0%
Obs % visual injury ([16]; Table 2, Indaziflam 35 g/ha): 5%

CCC(C)(CC)c1cc(NC(=O)c2c(OC)cccc2OC)on1 [Isoxaben, isoxaben, reference compound]
Obs % visual injury ([1]; Table 4, Isoxaben 50 g/ha): 0%
Obs % visual injury ([1]; Table 4, Isoxaben 100 g/ha): 5%
Obs % visual injury [17]: 0%
Obs % visual injury [18]: 0%
Obs % visual injury [19]: 15%
Obs % visual injury ([2]; Table 1, Isoxaben 50 g/ha): 0%
Obs % visual injury ([2]; Table 4, Isoxaben 50 g/ha): 0%
Obs % visual injury ([2]; Table 4, Isoxaben 100 g/ha): 0%
Obs % visual injury [20]: 0%
Obs % visual injury ([3]; Table 4, Isoxaben 50 g/ha): 15%
Obs % visual injury ([3]; Table 4, Isoxaben 100 g/ha): 15%
Obs % visual injury ([5]; Table 1, Isoxaben 50 g/ha): 8%
Obs % visual injury ([6]; Table 1, Isoxaben 50 g/ha): 5%
Obs % visual injury ([7]; Table 1, Isoxaben 50 g/ha): 3%
Obs % visual injury ([8]; Table 1, Isoxaben 50 g/ha): 0%
Obs % visual injury ([9]; Table 1, Isoxaben 50 g/ha): 10%
Obs % visual injury ([9]; Table 4, Isoxaben 50 g/ha): 20%
Obs % visual injury ([9]; Table 4, Isoxaben 100 g/ha): 10%
Obs % visual injury [21]: 0%
Obs % visual injury ([10]; Table 4, Isoxaben 50 g/ha): 53%
Obs % visual injury ([10]; Table 4, Isoxaben 100 g/ha): 60%
Obs % visual injury [22]: 0%
Obs % visual injury ([11]; Table 1, Isoxaben 50 g/ha): 55%
Obs % visual injury [23]: 18%
Obs % visual injury ([12]; Table 1, Isoxaben 50 g/ha): 5%
Obs % visual injury ([13]; Table 1, Isoxaben 50 g/ha): 0%
Obs % visual injury ([13]; Table 4, Isoxaben 50 g/ha): 0%
Obs % visual injury ([13]; Table 4, Isoxaben 100 g/ha): 0%
Obs % visual injury ([14]; Table 1, Isoxaben 50 g/ha): 13%
Obs % visual injury ([14]; Table 4, Isoxaben 50 g/ha): 5%
Obs % visual injury ([14]; Table 4, Isoxaben 100 g/ha): 5%
Obs % visual injury ([15]; Table 1, Isoxaben 50 g/ha): 5%
Obs % visual injury ([16]; Table 1, Isoxaben 50 g/ha): 0%
Obs % visual injury [24]: 8%
